# Assay results: PubChem BioAssay AID1963852 (Molecular Pharmacology Branch, DTP, NCI, 2024)
# Tested on: 282377-053-R-J1-PDC complex spheroid viability
# Assay: Anticancer human tumor 282377-053-R-J1-PDC patient-derived colon adenocarcinoma cell line growth inhibition [POLQ]
# Conditions: for IC50: curve of first compound; for viability, T/C: stronger effect = lower value
# In short: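 PDC + HUVEC + MSC complex spheroids; POLQ inhibitors ± partner drugs; top conc. at/near clinical Cmax, else 10 microM (SN-38 1 microM), half-log dilutions; 37 degrees C, 5% CO2.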
# [1] = second compound 0.0316 µM, first compound 0.0316 µM
# [2] = second compound 0.0316 µM, first compound 0.1 µM
# [3] = second compound 0.0316 µM, first compound 0.316 µM
# [4] = second compound 0.0316 µM, first compound 1 µM
# [5] = second compound 0.0316 µM, first compound 3.16 µM
# [6] = second compound 0.0316 µM, first compound 10 µM
# [7] = second compound 0.1 µM, first compound 0.0316 µM
# [8] = second compound 0.1 µM, first compound 0.1 µM
# [9] = second compound 0.1 µM, first compound 0.316 µM
# [10] = second compound 0.1 µM, first compound 1 µM
# [11] = second compound 0.1 µM, first compound 3.16 µM
# [12] = second compound 0.1 µM, first compound 10 µM
# [13] = second compound 0.316 µM, first compound 0.0316 µM
# [14] = second compound 0.316 µM, first compound 0.1 µM
# [15] = second compound 0.316 µM, first compound 0.316 µM
# [16] = second compound 0.316 µM, first compound 1 µM
# [17] = second compound 0.316 µM, first compound 3.16 µM
# [18] = second compound 0.316 µM, first compound 10 µM
# [19] = second compound 1 µM, first compound 0.0316 µM
# [20] = second compound 1 µM, first compound 0.1 µM
# [21] = second compound 1 µM, first compound 0.316 µM
# [22] = second compound 1 µM, first compound 1 µM
# [23] = second compound 1 µM, first compound 3.16 µM
# [24] = second compound 1 µM, first compound 10 µM
# [25] = second compound 3.16 µM, first compound 0.0316 µM
# [26] = second compound 3.16 µM, first compound 0.1 µM
# [27] = second compound 3.16 µM, first compound 0.316 µM
# [28] = second compound 3.16 µM, first compound 1 µM
# [29] = second compound 3.16 µM, first compound 3.16 µM
# [30] = second compound 3.16 µM, first compound 10 µM
# [31] = second compound 10 µM, first compound 0.0316 µM
# [32] = second compound 10 µM, first compound 0.1 µM
# [33] = second compound 10 µM, first compound 0.316 µM
# [34] = second compound 10 µM, first compound 1 µM
# [35] = second compound 10 µM, first compound 3.16 µM
# [36] = second compound 10 µM, first compound 10 µM
# 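Further: spheroids exposed to compounds for seven days.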
# 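Wherever viability, T/C is given: 100% = DMSO vehicle control viability.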
compound,measurement,setting,value
O=C(c1cc(Cc2n[nH]c(=O)c3ccccc23)ccc1F)N1CCN(C(=O)C2CC2)CC1 + COC1C(OC(N)=O)C(O)C(Oc2ccc3c(O)c(NC(=O)c4ccc(O)c(CC=C(C)C)c4)c(=O)oc3c2C)OC1(C)C,IC50,second compound 0.0316 µM,> 10 µM
same,IC50,second compound 0.1 µM,> 10 µM
same,IC50,second compound 0.316 µM,> 10 µM
same,IC50,second compound 1 µM,> 10 µM
same,IC50,second compound 3.16 µM,> 10 µM
same,IC50,second compound 10 µM,> 10 µM
same,"viability, T/C",[1],128%
same,"viability, T/C",[2],97.7%
same,"viability, T/C",[3],105%
same,"viability, T/C",[4],106%
same,"viability, T/C",[5],79.1%
same,"viability, T/C",[6],103%
same,"viability, T/C",[7],109%
same,"viability, T/C",[8],120%
same,"viability, T/C",[9],90.5%
same,"viability, T/C",[10],87.8%
same,"viability, T/C",[11],105%
same,"viability, T/C",[12],101%
same,"viability, T/C",[13],107%
same,"viability, T/C",[14],90.1%
same,"viability, T/C",[15],99.1%
same,"viability, T/C",[16],97.7%
same,"viability, T/C",[17],117%
same,"viability, T/C",[18],98%
same,"viability, T/C",[19],116%
same,"viability, T/C",[20],94.7%
same,"viability, T/C",[21],103%
same,"viability, T/C",[22],119%
same,"viability, T/C",[23],106%
same,"viability, T/C",[24],96%
same,"viability, T/C",[25],98.8%
same,"viability, T/C",[26],108%
same,"viability, T/C",[27],113%
same,"viability, T/C",[28],103%
same,"viability, T/C",[29],107%
same,"viability, T/C",[30],98.8%
same,"viability, T/C",[31],94%
same,"viability, T/C",[32],99.4%
same,"viability, T/C",[33],102%
same,"viability, T/C",[34],110%
same,"viability, T/C",[35],96%
same,"viability, T/C",[36],80.8%
COc1cccc(OCCCN)c1-c1cc(Nc2cnc(C#N)cn2)n[nH]1 + Cc1cccc(N(C)C(=O)C2C(O)CCN2c2nc(C)cc(C(F)(F)F)c2C#N)c1,IC50,second compound 0.0316 µM,0.632 µM
same,IC50,second compound 0.1 µM,0.559 µM
same,IC50,second compound 0.316 µM,> 1 µM
same,IC50,second compound 1 µM,0.545 µM
same,IC50,second compound 3.16 µM,0.3 µM
same,IC50,second compound 10 µM,0.395 µM
same,"viability, T/C","second compound 0.0316 µM, first compound 0.00316 µM",102%
same,"viability, T/C","second compound 0.0316 µM, first compound 0.01 µM",98.5%
same,"viability, T/C",[1],85.8%
same,"viability, T/C",[2],74.5%
same,"viability, T/C",[3],60.9%
same,"viability, T/C",[4],43.1%
same,"viability, T/C","second compound 0.1 µM, first compound 0.00316 µM",100%
same,"viability, T/C","second compound 0.1 µM, first compound 0.01 µM",95.4%
same,"viability, T/C",[7],97%
same,"viability, T/C",[8],73.4%
same,"viability, T/C",[9],60%
same,"viability, T/C",[10],41.5%
same,"viability, T/C","second compound 0.316 µM, first compound 0.00316 µM",91%
same,"viability, T/C","second compound 0.316 µM, first compound 0.01 µM",88.5%
same,"viability, T/C",[13],86.1%
same,"viability, T/C",[14],64.2%
same,"viability, T/C",[15],55.7%
same,"viability, T/C",[16],49.2%
same,"viability, T/C","second compound 1 µM, first compound 0.00316 µM",109%
same,"viability, T/C","second compound 1 µM, first compound 0.01 µM",90.2%
same,"viability, T/C",[19],72.9%
same,"viability, T/C",[20],59%
same,"viability, T/C",[21],57.3%
same,"viability, T/C",[22],45.1%
same,"viability, T/C","second compound 3.16 µM, first compound 0.00316 µM",95.9%
same,"viability, T/C","second compound 3.16 µM, first compound 0.01 µM",102%
same,"viability, T/C",[25],84.7%
same,"viability, T/C",[26],65.7%
same,"viability, T/C",[27],51.8%
same,"viability, T/C",[28],39.4%
same,"viability, T/C","second compound 10 µM, first compound 0.00316 µM",85.3%
same,"viability, T/C","second compound 10 µM, first compound 0.01 µM",90.1%
same,"viability, T/C",[31],72.3%
same,"viability, T/C",[32],61.8%
same,"viability, T/C",[33],55.8%
same,"viability, T/C",[34],39.6%
CCc1cc2c(N3CCc4c(cc(Cn5ccnc5)cc4-c4cn(C)nc4C(F)(F)F)C3=O)ccnc2c(OC)n1 + Nc1ccc(C#CCN(C(=O)Cc2ncc(C(F)(F)F)cc2C(F)(F)F)c2ccc(F)cc2)nn1,IC50,second compound 0.0316 µM,> 10 µM
same,IC50,second compound 0.1 µM,> 10 µM
same,IC50,second compound 0.316 µM,> 10 µM
same,IC50,second compound 1 µM,> 10 µM
same,IC50,second compound 3.16 µM,> 10 µM
same,IC50,second compound 10 µM,> 10 µM
same,"viability, T/C",[1],92.7%
same,"viability, T/C",[2],98.8%
same,"viability, T/C",[3],102%
same,"viability, T/C",[4],106%
same,"viability, T/C",[5],94.1%
same,"viability, T/C",[6],111%
same,"viability, T/C",[7],75.9%
same,"viability, T/C",[8],73.9%
same,"viability, T/C",[9],72.2%
same,"viability, T/C",[10],77.1%
same,"viability, T/C",[11],107%
same,"viability, T/C",[12],115%
same,"viability, T/C",[13],90.3%
same,"viability, T/C",[14],78.8%
same,"viability, T/C",[15],86.3%
same,"viability, T/C",[16],90.1%
same,"viability, T/C",[17],111%
same,"viability, T/C",[18],87.4%
same,"viability, T/C",[19],104%
same,"viability, T/C",[20],75.7%
same,"viability, T/C",[21],84.1%
same,"viability, T/C",[22],90.5%
same,"viability, T/C",[23],102%
same,"viability, T/C",[24],108%
same,"viability, T/C",[25],103%
same,"viability, T/C",[26],92.7%
same,"viability, T/C",[27],88.8%
same,"viability, T/C",[28],109%
same,"viability, T/C",[29],96.7%
same,"viability, T/C",[30],123%
same,"viability, T/C",[31],95.5%
same,"viability, T/C",[32],106%
same,"viability, T/C",[33],113%
same,"viability, T/C",[34],108%
same,"viability, T/C",[35],138%
same,"viability, T/C",[36],127%
CC1COCCN1c1cc(C2(S(C)(=N)=O)CC2)nc(-c2ccnc3[nH]ccc23)n1 (stereo not drawn) + Nc1ccc(C#CCN(C(=O)Cc2ncc(C(F)(F)F)cc2C(F)(F)F)c2ccc(F)cc2)nn1,IC50,second compound 0.0316 µM,> 10 µM
same,IC50,second compound 0.1 µM,> 10 µM
same,IC50,second compound 0.316 µM,> 10 µM
same,IC50,second compound 1 µM,> 10 µM
same,IC50,second compound 3.16 µM,> 10 µM
same,IC50,second compound 10 µM,> 10 µM
same,"viability, T/C",[1],117%
same,"viability, T/C",[2],96.5%
same,"viability, T/C",[3],90.7%
same,"viability, T/C",[4],86.2%
same,"viability, T/C",[5],73.6%
same,"viability, T/C",[6],54.6%
same,"viability, T/C",[7],99.2%
same,"viability, T/C",[8],106%
same,"viability, T/C",[9],93.1%
same,"viability, T/C",[10],79.8%
same,"viability, T/C",[11],78.7%
same,"viability, T/C",[12],58.5%
same,"viability, T/C",[13],116%
same,"viability, T/C",[14],101%
same,"viability, T/C",[15],93.1%
same,"viability, T/C",[16],81.5%
same,"viability, T/C",[17],80%
same,"viability, T/C",[18],59.7%
same,"viability, T/C",[19],112%
same,"viability, T/C",[20],90.9%
same,"viability, T/C",[21],84.7%
same,"viability, T/C",[22],91.7%
same,"viability, T/C",[23],75.1%
same,"viability, T/C",[24],70.3%
same,"viability, T/C",[25],116%
same,"viability, T/C",[26],101%
same,"viability, T/C",[27],91.4%
same,"viability, T/C",[28],92.4%
same,"viability, T/C",[29],76.1%
same,"viability, T/C",[30],57.5%
same,"viability, T/C",[31],96.5%
same,"viability, T/C",[32],119%
same,"viability, T/C",[33],106%
same,"viability, T/C",[34],95%
same,"viability, T/C",[35],93%
same,"viability, T/C",[36],72.4%
